The values below come from patent publication US12527844B2, “Pharmaceutical formulations” (Novo Nordisk A/S, priority 2020, dated 2026).

Each structure is given as a SMILES string. Like-named read-outs stand apart in the source and are kept apart here. Where only a bound is given, the exact number is not on record here.

A short description of data set [1]: Semaglutide solubility in the pH range 3.5-7.5 (FIG. 2). Type of data set: physicochemical. As to the method: FIG. 2 depicts semaglutide solubility in the pH range 3.5-7.5. […] Concentrations below ca. 0.6 mM indicate that no more than the analysed amount of semaglutide can be dissolved when the pH is below about 5.9.
Data set [2] is described as follows: PK after single s.c. administration via prefilled dual chamber syringe or separate injections. Format: in vivo, LYD pigs. As to conditions: for AUC/Dose [mean ± SD]: single s.c. dose. As to the method: Female cross bred domestic pigs (Danish Landrace, Yorkshire and Duroc—LYD pigs), having a body weight of approximately 80-100 kg, were used for exploring PK profiles.
A full plasma concentration-time profile was obtained from each animal, from pre-dosing to 18 days post dosing.
Plasma was analysed by means of Luminescence Oxygen Channelling Immunoassay (LOCI) and Liquid Chromatography-Mass Spectrometry (LCMS) for semaglutide and cagrilintide, respectively. Non-compartmental pharmacokinetic analysis, using individual plasma concentration-time profiles, was performed.

[3] abbreviates: dual chamber syringe versus separate injections.

Consider `CC[C@H](C)[C@H](NC(=O)[C@H](Cc1ccccc1)NC(=O)[C@H](CCC(=O)O)NC(=O)[C@H](CCCCNC(=O)COCCOCCNC(=O)COCCOCCNC(=O)CC[C@H](NC(=O)CCCCCCCCCCCCCCCCC(=O)O)C(=O)O)NC(=O)[C@H](C)NC(=O)[C@H](C)NC(=O)[C@H](CCC(N)=O)NC(=O)CNC(=O)[C@H](CCC(=O)O)NC(=O)[C@H](CC(C)C)NC(=O)[C@H](Cc1ccc(O)cc1)NC(=O)[C@H](CO)NC(=O)[C@H](CO)NC(=O)[C@@H](NC(=O)[C@H](CC(=O)O)NC(=O)[C@H](CO)NC(=O)[C@@H](NC(=O)[C@H](Cc1ccccc1)NC(=O)[C@@H](NC(=O)CNC(=O)[C@H](CCC(=O)O)NC(=O)C(C)(C)NC(=O)[C@@H](N)Cc1cnc[nH]1)[C@@H](C)O)[C@@H](C)O)C(C)C)C(=O)N[C@@H](C)C(=O)N[C@@H](Cc1c[nH]c2ccccc12)C(=O)N[C@@H](CC(C)C)C(=O)N[C@H](C(=O)N[C@@H](CCCNC(=N)N)C(=O)NCC(=O)N[C@@H](CCCNC(=N)N)C(=O)NCC(=O)O)C(C)C` [semaglutide, N^6,26-{18-[N-(17-carboxyheptadecanoyl)-L-γ-glutamyl]-10-oxo-3,6,12,15-tetraoxa-9,18-diazaoctadecanoyl}-[8-(2-amino-2-propanoic acid),34-L-arginine]human glucagon-like peptide 1(7-37)], for which, in data set [1] (pH above about 5.9, read-out: maximum solubility), the solubility is greater than 600 µM. In addition, the solubility in data set [1] (pH below about 5.9, read-out: solubility (dissolved concentration)) was less than 600 µM. In data set [2] (setting [3]), the “AUC/Dose % increase (Co-dosing vs. dual-chamber syringe)” value was roughly 13%, the “Cmax % increase (Co-dosing vs. dual-chamber syringe)” value is roughly 22% and the “t½ % increase (Co-dosing vs. dual-chamber syringe)” value was roughly 0%. For the same molecule, the “AUC/Dose [mean ± SD]” value in data set [2] (group Dual chamber syringe 2.4/2.4) stood at 1560 ± 229 kg·h/L. In addition, in data set [2] (group Mono (separate injections per title)), the “AUC/Dose [mean ± SD]” value was found to be 1380 ± 78.1 kg·h/L.
